Source: patent US20250129334A1, “LINEAGE SPECIFICATION DURING STEM CELL TRANSITION” (Amniotics AB, priority 2021, published 2025)

What was measured:
HE cells [1] = test: Colony forming unit assay of subcultured HE cells; format: cell-based, human
Protocol: Subcultured HE cells were treated with StemPro Accutase Cell Dissociation Reagent for 2 minutes at 37° C. and dissociated cells were resuspended in 3 ml Methocult H4230 (STEMCELL Technologies, France) (prepared according to manufacturer's instructions, with 20 mL Iscove's Modified Dulbecco's Medium containing 2.5 μg hSCF, 5 μg GM-CSF, 2.5 μg IL-3 and 500 U EPO). Each mixture was divided onto 2 wells of a non-tissue culture treated 6-well plate. Following a 12-day incubation in a humidified incubator at 37° C., 5% CO2, 20% O2, colonies were morphologically distinguished and scored. For globin analysis, colonies in Methocult wells were harvested with PBS, washed thoroughly and frozen in RLT buffer with β-mercaptoethanol. Following RNA extraction and RT (Qiagen), gene expression was assessed with taqman probes by q-PCR. The taqman probes used for this assay are HBA1/2 (Hs00361191_g1), HBE1 (Hs00362216_m1), HBG2/1 (Hs00361131_g1) and KLF1 (Hs00610592_m1).

HE cells [2] = test: Single-cell RNAseq of treated HE cells at day 2 of subculture; format: cell-based, human
Protocol: Sorted HE, EHT and HSC-like cells as well magnetically selected (Miltenyi Biotec) cord blood CD34^+ cells were plated onto Matrigel (16 μg/cm^2, Corning)-coated 96-well flat bottom plates in HE medium (Ditadi, A. & Sturgeon, C. M. Directed differentiation of definitive hemogenic endothelium and hematopoietic progenitors from human pluripotent stem cells. Methods 101, 65-72 (2016)) with 1% penicillin-streptomycin and kept in a humidified incubator at 37° C., 5% CO2, 4% O2 overnight. The following day (day 0), wells were washed twice with PBS and fresh HE medium was added, together with UK5099 (10 μM) or DCA (3 mM), where indicated. On day 1 and 2 (as indicated), cells were washed twice with PBS 0.04% UltraPure BSA and collected after a 2-minute incubation at 37° C. with StemPro Accutase Cell Dissociation Reagent. Cells were spun down, resuspended in PBS 0.04% UltraPure BSA, counted (yield between 8,000-18,000 cells) and library preparation was conducted according to the Chromium Single Cell 3′ Reagent kit v3 instructions (10× Genomics). Sequencing was performed on a NOVASeq 6000 from Illumina with the run parameters (28-8-0-91) recommended by 10× Genomics with a final loading concentration of 300 pM of the pooled libraries. Human Umbilical Cord Blood samples were collected from Skine University Hospital (Lund and Malmo) and Helsingborg Hospital with informed consents according to guidelines approved by the regional ethical committee.
The data was processed and analyzed using Seurat v3.1.0, where cells were allowed to have up to 20% mitochondrial reads prior to log-normalization and finding the top 500 variable genes using the “vst” method. Cell cycle scores were calculated and the data was scaled regressing on mitochondrial content and the difference of the S and G2M score. Principal components were calculated prior to calculating a UMAP. Pseudotime trajectories describing two developmental routes were identified in our EHT dataset using Slingshot (Street, K. et al. Slingshot: cell lineage and pseudotime inference for single-cell transcriptomics. BMC Genomics 19,477 (2018)) along which the cells were ordered. The cells were then binned along each trajectory where the cell type composition of each bin was calculated as percentages. Cord blood CD34+ cells were mapped to our data and labeled using scCoGAPS (Stein-O'Brien, G. L. et al. Decomposing Cell Identity for Transfer Learning across 23 Cellular Measurements, Platforms, Tissues, and Species. Cell Syst 8, 395-411.e8 (2019)). CS13 data from Zeng et al. (Zeng, Y. et al. Tracing the first hematopoietic stem cell generation in human embryo by single-cell RNA sequencing. Cell Res 1-14 (2019)) was read and processed to make a UMAP from which the cells they name as “AEC” and “Hem” were identified. These 99 cells were mapped to our data and labeled using SCMAP59. Carnegie Stage 13 data from Zeng et al. was mapped to our EHT dataset using scCoGAPS where 10 patterns were identified, named according to their respective weights (as shown in Table 1) and then projected using projectR. […] The CS 13 dorsal aorta dataset from Zeng et al. was mapped onto our EHT dataset using scCoGAPS. The patterns resulting from this analysis were classified as the cell types described by Zeng et al.
Each cell was assigned to the group that achieved the highest weight. […]

SMILES | granulocyte and macrophage colonies (CFU-G, GM and M) (HE cells [1]; 3 or 6 days of UK5099) | ratio of CFU-E colonies to the sum of CFU-G, CFU-GM and CFU-M colonies, higher than control (HE cells [1]; 6 days subculture, UK5099 10 μM) [fold] | erythroid colony (CFU-E) formation (HE cells [1]; UK5099 3 or 6 days, DCA 6-day treatment, vs untreated) | LSD1, GFI1 and GFI1B expression (HE cells [2]; as compared to DCA-treated cells) | average expression levels of erythroid lineage genes (RYK, KLF3, TAL1, GATA2, ZFPM1, KLF1, NFE2, ANK1, HBQ1) (HE cells [2]; clusters 6 and 7) | percentage of cells in cluster 6 (HE cells [2]; day 2) | more treated HE cells in cluster 7 compared to the control (HE cells [2]; day 2, UK5099 10 μM) [%] | ratio of CFU-E colonies to the sum of CFU-G, CFU-GM and CFU-M colonies, lower than control (HE cells [1]; 6 days subculture, DCA 3 mM) | less treated HE cells in cluster 7 compared to the control (HE cells [2]; day 2, DCA 3 mM) [%]
N#CC(=Cc1cn(-c2ccccc2)c2ccccc12)C(=O)O [UK5099, 2-Cyano-3-(1-phenyl-1H-indol-3-yl)-2-propenoic acid] | decreased | 20 | significantly increased | higher levels | higher | constant between conditions | 38 |  | 
O=C(O)C(Cl)Cl [DCA, dichloroacetate] |  |  |  |  |  |  |  | more than 3 fold | 35
